Measurements: US20230113037A1 (Bayer Aktiengesellschaft, priority 2019, published 2023)
Read-outs that look alike come from different tables or passages of the source.

Tests used:
[1] = target: T1, AHR (Mus musculus, UniProt P30561); assay: In vitro assay 3: antagonism in mouse cell line (AHR transactivation, firefly luciferase reporter, kynurenic acid prestimulated); format: cell-based
T1 sequence (P30561 1-848 P471L/N533S/M589L): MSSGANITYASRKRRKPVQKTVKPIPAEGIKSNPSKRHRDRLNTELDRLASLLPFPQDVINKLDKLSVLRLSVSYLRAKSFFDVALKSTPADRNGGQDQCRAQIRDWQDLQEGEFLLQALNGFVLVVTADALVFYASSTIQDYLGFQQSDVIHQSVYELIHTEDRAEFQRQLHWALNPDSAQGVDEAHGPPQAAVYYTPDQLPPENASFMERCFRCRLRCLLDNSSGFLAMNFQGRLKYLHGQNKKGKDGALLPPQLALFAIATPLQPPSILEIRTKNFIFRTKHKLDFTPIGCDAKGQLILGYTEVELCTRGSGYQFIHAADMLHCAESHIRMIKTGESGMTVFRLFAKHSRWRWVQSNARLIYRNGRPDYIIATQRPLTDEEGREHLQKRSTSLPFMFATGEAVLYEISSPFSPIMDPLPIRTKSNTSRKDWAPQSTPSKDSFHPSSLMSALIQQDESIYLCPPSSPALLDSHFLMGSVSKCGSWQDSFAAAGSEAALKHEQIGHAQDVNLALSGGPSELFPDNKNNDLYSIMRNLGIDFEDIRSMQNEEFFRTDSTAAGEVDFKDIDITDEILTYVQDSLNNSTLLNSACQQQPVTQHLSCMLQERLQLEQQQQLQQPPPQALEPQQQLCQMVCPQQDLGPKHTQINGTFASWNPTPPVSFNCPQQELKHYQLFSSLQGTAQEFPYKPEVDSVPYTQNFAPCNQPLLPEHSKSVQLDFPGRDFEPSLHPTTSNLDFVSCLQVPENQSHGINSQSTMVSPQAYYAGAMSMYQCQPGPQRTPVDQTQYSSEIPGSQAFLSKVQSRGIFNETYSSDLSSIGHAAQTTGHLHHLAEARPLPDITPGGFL
Procedure, shortened: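 Mouse cells stably carrying a DRE-driven AHR-inducible firefly luciferase reporter were prestimulated with the endogenous agonist kynurenic acid before compound addition. Luciferase read by SteadyGlo; cells without kynurenic acid served as full-inhibition control, with normalization to positive and negative controls. Repeat tests reported as mean or median.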

[2] = target: T2, AHR (Homo sapiens, UniProt P35869); assay: In vitro assay 1: antagonism in human cell line (AHR transactivation, firefly luciferase reporter, kynurenic acid prestimulated); format: cell-based; details: AHR Antagonism Human IC50 [M]
T2 construct: U87 MG glioblastoma cells (ATCC #HTB-14) endogenously expressing AHR; endogenous in cells; host or cells: U87 MG glioblastoma cells (ATCC #HTB-14)
T2 sequence (P35869 11-848): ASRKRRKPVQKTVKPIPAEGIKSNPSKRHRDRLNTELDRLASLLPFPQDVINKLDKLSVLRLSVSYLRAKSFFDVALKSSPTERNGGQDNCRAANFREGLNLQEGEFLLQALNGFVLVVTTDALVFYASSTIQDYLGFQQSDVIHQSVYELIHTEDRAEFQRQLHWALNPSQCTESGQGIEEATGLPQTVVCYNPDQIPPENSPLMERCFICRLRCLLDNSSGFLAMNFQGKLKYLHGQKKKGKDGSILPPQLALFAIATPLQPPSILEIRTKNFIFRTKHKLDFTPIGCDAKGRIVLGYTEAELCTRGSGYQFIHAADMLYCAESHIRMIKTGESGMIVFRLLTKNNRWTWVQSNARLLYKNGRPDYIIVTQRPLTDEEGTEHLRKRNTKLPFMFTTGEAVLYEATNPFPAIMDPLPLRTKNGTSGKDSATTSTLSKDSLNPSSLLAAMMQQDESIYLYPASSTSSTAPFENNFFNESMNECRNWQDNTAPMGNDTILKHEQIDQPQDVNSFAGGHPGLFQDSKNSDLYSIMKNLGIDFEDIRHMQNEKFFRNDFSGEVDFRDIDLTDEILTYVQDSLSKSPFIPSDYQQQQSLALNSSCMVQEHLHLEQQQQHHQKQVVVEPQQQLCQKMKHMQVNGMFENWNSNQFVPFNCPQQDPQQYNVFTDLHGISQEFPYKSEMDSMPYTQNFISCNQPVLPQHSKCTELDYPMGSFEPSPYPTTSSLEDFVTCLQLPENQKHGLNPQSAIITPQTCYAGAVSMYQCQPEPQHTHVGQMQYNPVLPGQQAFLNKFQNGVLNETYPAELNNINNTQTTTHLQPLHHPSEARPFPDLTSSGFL
Procedure, shortened: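 U87 MG glioblastoma cells with endogenous AHR, stably carrying a DRE-driven firefly luciferase reporter and constitutive Renilla reporter, prestimulated with kynurenic acid before compound addition. Firefly and Renilla read by dual luciferase; Renilla flags toxicity; normalized to controls (150 μM kynurenic acid + 5 μM staurosporine as full inhibition); repeat values averaged or median.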

[3] = mouse Hepa 1c1c7 cells, 200 μM kynurenic acid, 20 hours, read-out: AHR Antagonism Mouse IC50

SMILES | IC50 [1, 3] [µM] | IC50 [2] [M] | IC50 ([1]; read-out: AHR Antagonism Mouse IC50, mouse Hepa 1c1c7 cells, 200 μM kynurenic acid, 20 hours) [µM]
O=C1NCCCC[C@H]1Nc1nc2ccccc2c2nc(-c3ccncc3F)nn12 [Example 369, (3R)-3-{[2-(3-fluoropyridin-4-yl)[1,2,4]triazolo[1,5-c]quinazolin-5-yl]amino}azepan-2-one] | 0.00997 | 1.64e-08 | 
O=C1NCCCC[C@H]1Nc1nc2ccccc2c2nc(-c3cccc(C(F)(F)F)n3)nn12 [Example 370, (3R)-3-({2-[6-(trifluoromethyl)pyridin-2-yl][1,2,4]triazolo[1,5-c]quinazolin-5-yl}amino)azepan-2-one] | 0.00638 | 5.45e-08 | 
CC[C@@H](Nc1nc2ccccc2c2nc(-c3cccc(C(F)(F)F)n3)nn12)C(N)=O [Example 371, (2R)-2-({2-[6-(trifluoromethyl)pyridin-2-yl][1,2,4]triazolo[1,5-c]quinazolin-5-yl}amino)butanamide] | 0.0146 | 7.24e-08 | 
CS(=O)(=O)c1ccc(-c2nc3c4ccccc4nc(N[C@@H]4CCCCNC4=O)n3n2)cc1 [Example 372, (3R)-3-({2-[4-(methanesulfonyl)phenyl][1,2,4]triazolo[1,5-c]quinazolin-5-yl}amino)azepan-2-one] | 0.00173 | 8.65e-09 | 
CS(=O)(=O)c1ccc(-c2nc3c4ccccc4nc(N[C@@H]4CCNC4=O)n3n2)cc1 [Example 373, (3R)-3-({2-[4-(methanesulfonyl)phenyl][1,2,4]triazolo[1,5-c]quinazolin-5-yl}amino)pyrrolidin-2-one] | 0.514 | 6.38e-07 | 
CS(=O)(=O)c1ccc(-c2nc3c4ccccc4nc(N[C@@H]4CCCNC4=O)n3n2)cc1 [Example 374, (3R)-3-({2-[4-(methanesulfonyl)phenyl][1,2,4]triazolo[1,5-c]quinazolin-5-yl}amino)piperidin-2-one] | 0.211 | 4.49e-07 | 
CS(=O)(=O)c1ccc(-c2nc3c4ccccc4nc(N[C@H]4CCCCNC4=O)n3n2)cc1 [Example 375, (3S)-3-({2-[4-(methanesulfonyl)phenyl][1,2,4]triazolo[1,5-c]quinazolin-5-yl}amino)azepan-2-one] | 0.0306 | 7.95e-07 | 
CC[C@@H](Nc1nc2ccccc2c2nc(-c3ccc(S(C)(=O)=O)cc3)nn12)C(N)=O [Example 376, (2R)-2-({2-[4-(methanesulfonyl)phenyl][1,2,4]triazolo[1,5-c]quinazolin-5-yl}amino)butanamide] | 0.00493 | 1.61e-08 | 
CCC[C@@H](Nc1nc2ccccc2c2nc(-c3ccc(S(C)(=O)=O)cc3)nn12)C(=O)NC [Example 377, N^2-{2-[4-(methanesulfonyl)phenyl][1,2,4]triazolo[1,5-c]quinazolin-5-yl}-N-methyl-D-norvalinamide] | 0.0124 | 3.28e-08 | 
CC[C@@H](Nc1nc2ccccc2c2nc(-c3cccc(S(C)(=O)=O)c3)nn12)C(N)=O [Example 378, (2R)-2-({2-[3-(methanesulfonyl)phenyl][1,2,4]triazolo[1,5-c]quinazolin-5-yl}amino)butanamide] | 0.171 | 6.25e-07 | 
CC[C@@H](Nc1nc2ccccc2c2nc(-c3ccc(OC)cc3)nn12)C(N)=O [Example 379, (2R)-2-{[2-(4-methoxyphenyl)[1,2,4]triazolo[1,5-c]quinazolin-5-yl]amino}butanamide] | 0.000993 | 7.6e-10 | 
N#Cc1cccc(-c2nc3c4ccccc4nc(N[C@@H]4CCCCNC4=O)n3n2)c1 [Example 381, 3-(5-{[(3R)-2-oxoazepan-3-yl]amino}[1,2,4]triazolo[1,5-c]quinazolin-2-yl)benzonitrile] | 0.00151 | 1.02e-08 | 
CC[C@@H](Nc1nc2ccccc2c2nc(-c3cccc(C#N)c3)nn12)C(N)=O [Example 382, (2R)-2-{[2-(3-cyanophenyl)[1,2,4]triazolo[1,5-c]quinazolin-5-yl]amino}butanamide] | 0.00125 | 7.64e-09 | 
N#Cc1cccc(-c2nc3c4ccccc4nc(N[C@@H]4CCNC4=O)n3n2)c1 [Example 383, 3-(5-{[(3R)-2-oxopyrrolidin-3-yl]amino}[1,2,4]triazolo[1,5-c]quinazolin-2-yl)benzonitrile] | 0.388 | 1.39e-07 | 
N#Cc1cccc(-c2nc3c4ccccc4nc(N[C@@H]4CCCNC4=O)n3n2)c1 [Example 384, 3-(5-{[(3R)-2-oxopiperidin-3-yl]amino}[1,2,4]triazolo[1,5-c]quinazolin-2-yl)benzonitrile] | 0.0722 | 2.73e-07 | 
N#Cc1cccc(-c2nc3c4ccccc4nc(N[C@H]4CCCCNC4=O)n3n2)c1 [Example 385, 3-(5-{[(3S)-2-oxoazepan-3-yl]amino}[1,2,4]triazolo[1,5-c]quinazolin-2-yl)benzonitrile] | 0.146 | 1.97e-06 | 
CC[C@@H](Nc1nc2ccccc2c2nc(-c3ccc(C#N)cc3)nn12)C(N)=O [Example 386, (2R)-2-{[2-(4-cyanophenyl)[1,2,4]triazolo[1,5-c]quinazolin-5-yl]amino}butanamide] | 0.000346 | 6.02e-10 | 
N#Cc1ccc(-c2nc3c4ccccc4nc(N[C@@H]4CCCCNC4=O)n3n2)cc1 [Example 387, 4-(5-{[(3R)-2-oxoazepan-3-yl]amino}[1,2,4]triazolo[1,5-c]quinazolin-2-yl)benzonitrile] | 0.000398 | 7.93e-10 | 
N#Cc1ccc(-c2nc3c4ccccc4nc(N[C@@H]4CCCNC4=O)n3n2)cc1 [Example 389, 4-(5-{[(3R)-2-oxopiperidin-3-yl]amino}[1,2,4]triazolo[1,5-c]quinazolin-2-yl)benzonitrile] | 0.0267 | 1.76e-08 | 
O=C1NCCCC[C@H]1Nc1nc2ccccc2c2nc(-c3ccn4ccnc4c3)nn12 [Example 390, (3R)-3-{[2-(Imidazo[1,2-a]pyridin-7-yl)[1,2,4]triazolo[1,5-c]quinazolin-5-yl]amino}azepan-2-one] | 0.00102 | 1.38e-09 | 
COc1ccc(-c2nc3c4ccccc4nc(N[C@H](C)C(=O)NC(C)C)n3n2)cc1 [Example 391, N^2-[2-(4-Methoxyphenyl)[1,2,4]triazolo[1,5-c]quinazolin-5-yl]-N-propan-2-yl-D-alaninamide] | 0.0461 | 3.31e-08 | 
COc1ccc(-c2nc3c4cc(C(C)C)ccc4nc(N[C@@H]4CCCCNC4=O)n3n2)cc1 [Example 392, (3R)-3-{[2-(4-Methoxyphenyl)-9-(propan-2-yl)[1,2,4]triazolo[1,5-c]quinazolin-5-yl]amino}azepan-2-one] | 0.0315 | 2.38e-07 | 
CC(C)c1cccc2c1nc(N[C@@H]1CCCCNC1=O)n1nc(-c3ccc(F)cc3)nc21 [Example 393, (3R)-3-{[2-(4-Fluorophenyl)-7-(propan-2-yl)[1,2,4]triazolo[1,5-c]quinazolin-5-yl]amino}azepan-2-one] |  | 4.34e-08 | 0.0342
